Assays:
human M2 receptor [1] = biological target: T1, human M2 receptor (Homo sapiens, UniProt P08172); assay: Functional M2-GIRK1/4 activation test: allosteric potency (EC50) and efficiency at EC20 acetylcholine; type: cell-based; conditions: CHO-DUKX-M2-GIRK cells; for EC50: voltage-sensitive dye, acetylcholine at EC20, in some cases mean of two or more determinations; for Emax / Efficiency: boosting of the acetylcholine effect at EC20 acetylcholine concentration
T1 construct: expressed in transfected cells; host or cells: CHO-DUKX (CHO-DUKX-M2-GIRK)
T1 sequence (P08172 1-466): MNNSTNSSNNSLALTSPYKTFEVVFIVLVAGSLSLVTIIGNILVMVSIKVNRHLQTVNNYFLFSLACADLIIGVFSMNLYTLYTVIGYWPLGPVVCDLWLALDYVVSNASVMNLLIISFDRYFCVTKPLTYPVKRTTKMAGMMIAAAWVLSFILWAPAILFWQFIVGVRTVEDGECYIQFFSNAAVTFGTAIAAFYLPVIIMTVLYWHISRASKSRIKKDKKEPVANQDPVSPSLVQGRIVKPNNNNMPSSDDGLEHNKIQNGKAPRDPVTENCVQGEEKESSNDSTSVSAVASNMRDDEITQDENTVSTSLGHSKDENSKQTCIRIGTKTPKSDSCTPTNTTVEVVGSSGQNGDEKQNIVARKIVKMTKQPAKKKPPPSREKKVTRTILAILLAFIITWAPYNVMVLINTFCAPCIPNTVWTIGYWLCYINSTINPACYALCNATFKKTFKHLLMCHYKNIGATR
Summary of the method: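 Positive allosteric modulation measured as boosting of an EC20 acetylcholine response: hyperpolarization via GIRK1/4 in CHO-DUKX-M2-GIRK cells, monitored by membrane-potential dye fluorescence over 60 s after agonist, compound preadded. Hill-function fit gives EC50 and efficiency.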

human M2 receptor [2] = biological target: T1, human M2 receptor; assay: Functional M2-GIRK1/4 activation test: positive cooperativity (α factor), shift of acetylcholine dose-response curve; type: cell-based; conditions: Allosteric EC50 shift of acetylcholine 8-point dose-response curve; CHO-DUKX-M2-GIRK cells; α>1 = positive cooperativity
Summary of the method: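 CHO-DUKX cells stably expressing human M2 and GIRK1/4, loaded with voltage-sensitive dye at room temperature; hyperpolarization followed by fluorescence. Each test-substance concentration, added first, combined with an 8-point acetylcholine dose-response; shift of the acetylcholine curve analysed by allosteric EC50 shift model to give cooperativity factor α.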

Row | SMILES | EC50 (human M2 receptor [1]) [nM] | Emax (human M2 receptor [1]) [%] | Cooperativity (alpha factor) (human M2 receptor [2]) | Efficiency (human M2 receptor [1]) [%]
1 | O=C(NC(C1CC1)(C1CC1)C(F)(F)C(F)(F)F)c1cn(-c2c(F)cc(F)cc2F)c2nc(N3CC(CO)(CO)C3)c(F)cc2c1=O [Example 212, 7-[3,3-bis(hydroxymethyl)azetidin-1-yl]-N-(1,1-dicyclopropyl-2,2,3,3,3-pentafluoropropyl)-6-fluoro-4-oxo-1-(2,4,6-trifluorophenyl)-1,4-dihydro-1,8-naphthyridine-3-carboxamide] | 2 | 100 | 28 | –
2 | CC(C)(NC(=O)c1cn(-c2c(F)cc(F)cc2Cl)c2nc(N3C[C@@H](O)[C@H](O)C3)c(F)cc2c1=O)C(F)F (single isomer, unassigned) [Example 143] | 1.5 | – | 40 | 94
3 | CC[C@@H](NC(=O)c1cn(-c2c(F)cc(F)cc2F)c2nc(N3C[C@@H](O)[C@H](O)C3)c(F)cc2c1=O)C(F)(F)F [Example 36, 7-[(3R,4R)-3,4-dihydroxypyrrolidin-1-yl]-6-fluoro-4-oxo-N-[(2R)-1,1,1-trifluorobutan-2-yl]-1-(2,4,6-trifluorophenyl)-1,4-dihydro-1,8-naphthyridine-3-carboxamide] | 5 | 92 | 51 | –
4 | CC(NC(=O)c1cn(-c2c(F)cc(F)cc2F)c2nc(N3C[C@@H](O)[C@@H](O)C3)c(F)cc2c1=O)C(F)(F)C(F)(F)F (single isomer, unassigned) [Example 94] | – | 100 | 34 | –
5 | CC(NC(=O)c1cn(-c2c(F)cc(F)cc2F)c2nc(N3C[C@@H](O)[C@H](O)C3)c(F)cc2c1=O)C(F)(F)C(F)(F)F (single isomer, unassigned) [Example 9] | – | 91 | 39 | –
6 | CC(C)(NC(=O)c1cn(-c2c(F)cc(F)cc2F)c2nc(N3CC(CO)(CO)C3)c(F)cc2c1=O)C(F)(F)C(F)(F)F [Example 166, 7-[3,3-Bis(hydroxymethyl)azetidin-1-yl]-6-fluoro-4-oxo-N-(3,3,4,4,4-pentafluoro-2-methyl-butan-2-yl)-1-(2,4,6-trifluorophenyl)-1,4-dihydro-1,8-naphthyridine-3-carboxamide] | 4.4 | 100 | 31 | –
7 | C[C@H](NC(=O)c1cn(-c2c(F)cc(F)cc2Cl)c2nc(N3C[C@@H](O)[C@H](O)C3)c(F)cc2c1=O)C(F)(F)F (single isomer, unassigned) [Example 226] | 6.7 | – | 31 | 93
8 | CC(NC(=O)c1cn(-c2c(F)cc(F)cc2F)c2nc(N3CCC[C@@H]3CO)c(F)cc2c1=O)C(F)(F)C(F)(F)F (single isomer, unassigned) [Example 184] | 4.5 | 90 | 24 | –

From patent publication US11472803B2, “7-substituted 1-aryl-naphthyridine-3-carboxylic acid amides and use thereof” (Bayer Aktiengesellschaft, priority 2016, dated 2022)
